The subject of this test is Nesprin-2 (SYNE2). The test is described as follows: Assay for upregulation of Nesprin-2 mRNA (Panomics Quantigene multiplex branched DNA assay) in fibroblasts. The settings on record: 24 hours, vs vehicle control. In kind it is cell-based, human. As to the method:
A variety of botanical extract and synthetic compounds were tested for the ability to up-regulate […]-2 (SYNE2), Gene Accession Number-NM-182914.2. Normal human dermal fibroblasts or keratinocytes were cultured in 96-well tissue culture treated plates, containing appropriate culture medium. Stock solutions of actives were made in an appropriate vehicle (water/Ethanol/DMSO). Cells were treated with test material or respective vehicle control diluted in growth medium for 24 hours in a humidified 37° C. incubator with 10% CO2. The concentrations of each extract are provided based on the dry weight of the given plant extract, by which is meant the weight of the extract after volatile extraction solvents have been removed. After incubation, growth medium from each plate was removed and 100 μL of lysis buffer was added to the wells and placed in 37° C. incubator with 10% CO2 for 30 minutes. At the end of incubation, the cells are collected in freezer plates and placed in -80° C. freezer, until analysis. Changes in mRNA for after treatment were analysed using Panomics Quantigene multiplex assay that employs a branched DNA technology, following manufacturer's instructions (Affymetrix, CA). Percent increase (up-regulation) in mRNA for the […]-2 was calculated by comparing the test results to the control.

Each structure is given as a SMILES string.

With `C[C@@H]1NC(=O)N[C@@H]1CCCCCC(=O)O` [D-Desthiobiotin], the “Nesprin-2 (percent up-regulation in mRNA, scaled score)” value by setting is: (0.0001%) “++++ (0.001%, (>80 (++++))”; (0.001%) “++++ (0.001%, (>80 (++++))”.
